Values of other authors in patent publication US20250268820A1 (Zambon S.p.A., priority 2020, published 2025).

Key:
[1] = in vivo

## OC(Cn1cncn1)(Cn1cncn1)c1ccc(F)cc1F [Fluconazole]
Invasive aspergillosis
  activity against invasive aspergillosis: not active

## CCC(C)n1ncn(-c2ccc(N3CCN(c4ccc(OCC5COC(Cn6cncn6)(c6ccc(Cl)cc6Cl)O5)cc4)CC3)cc2)c1=O (stereo not drawn) [itraconazole]
Healthy volunteers
  ELF exposure as fraction of the plasma concentration: approximately ⅓
  concentration in the alveolar cells with respect to the plasma concentration: more than double
Other cases
  concentrations in bronchoalveolar lavage fluid and lung tissue in the airways versus plasma: 10 times lower

## C[C@@H](c1ncncc1F)[C@](O)(Cn1cncn1)c1ccc(F)cc1F [voriconazole]
post-mortem studies, treated patients
  concentration in homogenates of lung tissue versus plasma: comparable to those measured in the plasma
[1]
  pharmacokinetic profile (Cmax and AUC versus dose): non-linear
